Measured values: patent US11166942B2 (PRAXIS BIOTECH LLC, priority 2018, dated 2021)
Like-named read-outs stand apart in the source and are kept apart here.

What was measured:
[1] = tested on: Chinese hamster ovary (CHO) cells; assay: Protein translation assay (puromycin labelling, CHO cells); assay type: cell-based; details: Cricetulus griseus, CHO, media alone = 100%
Outline: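 CHO cells given compound 2 h at 1 μM (unstressed), or 1 h at 100 nM or 1 μM then co-treated with 300 nM Tg (stressed); 10 μg/ml puromycin pulse 30 min, anti-puromycin western blot with β-actin, densitometry. Normalized to media alone (100%) and, for stressed cells, Tg alone (0%).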

[2] = tested on: Balb/c mice with immobilized hind limb, gastrocnemius; assay: Immobilization-induced muscle atrophy; assay type: in vivo, mouse; details: 10 mg/kg oral
Method: Wild type eight-weeks-old male Balb/c mice obtained from the vivarium Fundación Ciencia & Vida Chile (Santiago, Chile) were used. Mice were housed in independent plastic cages, fed ad libitum in a room maintained at 25° C. with a 12-h:12-h light:dark cycle.
Twenty-four hours before and during the 3 days of immobilization procedures, animals receive oral administration via feeding tubes (15 gauge) of vehicle (50% Polyethylene glycol 400 (Sigma-Aldrich P3265) in distilled water or 10 mg/kg of test compound formulated in vehicle.
One hindlimb is immobilized with a plastic stick placed over and under the limb and fixed with a medical adhesive bandage. Animals were daily monitored. The immobilization procedure prevents movement of the immobilized leg alone. After 3 days, the animals were sacrificed and gastrocnemius muscle is removed from both hindlimbs, the contralateral, non-immobilized leg being used as an internal control.
For in vivo measurements of protein synthesis, puromycin (Sigma-Aldrich, P8833) is prepared at 0.04 μmol/g body weight in a volume of 200 μl of PBS, and subsequently administered into the animals via intraperitoneal injection, 30 min prior to muscle collection.
Upon collection, muscles were immediately frozen in liquid nitrogen and stored at −80° C. […] Protein concentration in supernatants is determined using BCA Protein Assay Kit (Pierce). […]
Puromycin (12D10) (Merck Millipore), ATF4 (Abcam), Atrogin-1 (ECM Biosciences), MuRF-1 (Santa Cruz Biotechnology) and β-actin (Sigma-Aldrich) antibodies were used as primary antibodies. […] Quantification of protein bands is done by densitometry using ImageJ software.
Expression of ATF4 and the muscle atrophy markers, Atrogin-1 and MuRF-1, of gastrocnemius derived from mobilized and immobilized hind limbs of mice treated with vehicle or compound 58 are shown in FIG. 9C. […] The levels were normalized to β-actin expression and percentage is calculated as the percent relative to the expression of mobile hind limb from control mice (Vehicle) which corresponds to 100%. […]

For `O=C(NN1CCN(C[C@@H](O)COc2ccc(Cl)c(F)c2)CC1)c1ccc2cc(Cl)ccc2n1` [Compound 58, (R)-6-chloro-N-(4-(3-(4-chloro-3-fluorophenoxy)-2-hydroxypropyl)piperazin-1-yl)quinoline-2-carboxamide], the activity at 1 µM ([1]; 2 h, unstressed CHO cells, 1 μM, 2 hours, read-out: % Protein synthesis in unstressed cells (1 μM test compound)) was 164%, the activity at 1 µM ([1]; CHO cells stressed with 300 nM Tg, 1 μM compound, Tg alone = 0%, read-out: % Recovery of protein expression (1 μM test compound)) was 118% and the “ATF4 expression in gastrocnemius” value ([2]; vs vehicle (FIG. 9D)) was “reduction”. For the same compound, the “Atrogin-1 expression in gastrocnemius” value ([2]; vs vehicle (FIG. 9E)) was “reduction” and the “MuRF-1 expression in gastrocnemius” value ([2]; vs vehicle (FIG. 9F)) was “reduction”.
